# Laboratory results: US10479979B2, “Method for making and using cold atmospheric plasma stimulated media for cancer treatment” (U.S. Patent Innovations, LLC, priority 2015, dated 2019)
# Assays:
# [1] = system: U87 cells; assay: MTT cell viability of U87 cells cultured 72 hours in test media; type: cell-based, Human
# Experimental: (§1) As a preliminary step, cancer cells are cultured overnight. For example, the cancer cells may be cultured in an incubator under the standard conditions (a 37° C., 5% (v/v) CO2 and humidified environment) for […]. MTT (3-(4,5-dimethylthiazol-2-yl)-2,5-diphenyltetrazolium bromide), a colorimetric assay (Sigma-Aldrich) was harnessed to qualify the cell viability. The initial media which had been used to culture cancer cells overnight may be discarded prior to treatment with CAPs media. […]
# (§2) For each cell line, the protocol was identical. […] Ultimately, according to the standard method, the viability of U87 cells were qualified by MTT test and were read by a H1 microplate reader (Hybrid Technology) at the absorbance of 570 nm.
# (§3) The protocols for three cell lines were identical. […] Ultimately, the cell viability was measured.
# (§4) The protocol for three cell lines was identical. […] Second, we respectively prepared 2.4 mM specific amino acids rich DMEM by dissolving specific quantities of amino acids powers (Sigma-Aldrich) in DMEM (1% ABS). […]
# [2] = system: MCF-7 cells; assay: MTT cell viability of MCF-7 cells cultured 72 hours in test media; type: cell-based, Human
# Experimental: as §1, §2, §3, §4
# [3] = H2O2 in complete media, nominal 1-100 μM, 72 hours
SMILES,"resistance to H2O2 rich media [1, 3]","resistance to H2O2 rich media [2, 3]","growth of cancer cells in untreated amino acid rich DMEM (control group, toxicity) ([1]; 2.4 mM, no CAP treatment)","growth of cancer cells in untreated amino acid rich DMEM (control group, toxicity) ([2]; 2.4 mM, no CAP treatment)"
"OO [H2O2, hydrogen peroxide]",stronger resistance to H2O2 than MDA-MB-231 cells,stronger resistance to H2O2 than MDA-MB-231 cells,–,–
N[C@@H](Cc1c[nH]c2ccccc12)C(=O)O [tryptophan],–,–,strong resistance to growth of cancer cells,strong resistance to growth of cancer cells
